Laboratory results taken from publication PMC10527105, “Chirality Matters: Fine-Tuning of Novel Monoamine Reuptake Inhibitors Selectivity through Manipulation of Stereochemistry” (Biomolecules, 2023).
Where two headings read alike, the source gives them in different places.

Columns and labels:
rat cortical neurons = experiment: Neurite outgrowth assay (Cyprotex); assay type: cell-based; details: for IC50: 72 h
Procedure: Neurite outgrowth assay. […] were carried out by Cyprotex (an Evotec Company, Toulouse, France), Study No. CYP2052-R1. For an in-depth description, please refer to the report in the supporting information files. Cryo-preserved rat cortical neurons (QBM Cell Science, R-Cx-500) were quickly thawed and slowly diluted with neurobasal medium supplemented with L-glutamine (Invitrogen, Cat. No. 25030-081), penicillin-streptomycin (Invitrogen, Cat. No. 15140-122), and B27 (NB/B27 medium, Invitrogen, Cat. No. 17504-044). After a gentle centrifugation step, the neurons were resuspended in NB/B27 medium at a density of 4.0 × 10^6 cells/mL. One hour prior to treatment, the neurons were plated in 384-well plates (Corning 354663) pre-coated with a laminin solution (Sigma L2020 1 mg/mL) at a density of 10,000 cells per well. After treatment with test articles and control compounds, the neurons were maintained in a humidified environment at 37 °C with 5% CO2 for 72 h. At the end of the treatment period, the neurons were fixed for 1 h with a 3.7% formaldehyde solution (Acros Organics, 41073-0010). The neurons were washed with phosphate buffered saline (PBS) (SH30264.02) and permeabilized for 10 min with a 0.5% solution of Triton X-100 (Millipore Sigma, X100). After another wash step, the neurons were stained for one hour with Hoechst 33342 (ThermoFisher Scientific, H3570) and the anti-beta III tubulin antibody, Alexa Fluor® 488 conjugate (Millipore Sigma AB15708A4), diluted in a blocking buffer solution (Thermo Scientific, 37525). Upon completion of the staining step, the neurons were washed again, and the plates were sealed in preparation for the imaging process. The neurons were evaluated for neurite outgrowth and cell health using the high-content imaging platform, ArrayScan VTi (Thermo Scientific ArrayScan VTi), with an optimized neuronal profiling bio-application.
This assay assessed cell health and neurite outgrowth utilizing a neuronal profiling bio-application applied to images obtained on an ArrayScan VTi. Valid neuron count, mean neurite average length, and neurite total length per neuron were determined and reported. Raw data were normalized to the vehicle control and reported as a normalized% response. Dose response graphs were generated with GraphPad Prism using a sigmoidal dose-response (variable slope) algorithm.

[1] = target: T1, noradrenaline transporter/SLC6A2 (NET) (Homo sapiens, UniProt P23975); details: cells stably expressing NET; ref [35]; read-out: Reuptake Inhibition (IC50 ± SE, µM) NET; cited from earlier work
T1 construct: expressed in transfected cells; host or cells: HEK293
T1 sequence (P23975 whole entry): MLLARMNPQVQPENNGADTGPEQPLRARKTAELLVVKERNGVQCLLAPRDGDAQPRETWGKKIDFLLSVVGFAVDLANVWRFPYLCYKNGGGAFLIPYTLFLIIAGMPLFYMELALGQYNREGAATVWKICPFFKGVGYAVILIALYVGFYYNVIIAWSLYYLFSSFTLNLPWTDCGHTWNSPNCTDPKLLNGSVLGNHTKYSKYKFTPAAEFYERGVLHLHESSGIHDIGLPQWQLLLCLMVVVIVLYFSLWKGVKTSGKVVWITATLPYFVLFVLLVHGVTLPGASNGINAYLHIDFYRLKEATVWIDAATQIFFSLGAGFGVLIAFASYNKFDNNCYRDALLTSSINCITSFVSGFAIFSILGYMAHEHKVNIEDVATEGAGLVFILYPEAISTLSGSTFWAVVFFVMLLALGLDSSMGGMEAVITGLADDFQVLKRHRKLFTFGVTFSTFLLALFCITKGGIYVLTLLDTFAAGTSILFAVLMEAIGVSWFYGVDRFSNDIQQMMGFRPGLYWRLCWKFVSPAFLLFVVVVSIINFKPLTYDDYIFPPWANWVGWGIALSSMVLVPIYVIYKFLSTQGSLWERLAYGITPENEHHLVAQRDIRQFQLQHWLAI

Row | Compound | IC50 (rat cortical neurons; Rattus norvegicus, Cortical neurone, read-out: Mean Neurite Avg. Length IC50, rat cortical neurons, 72 h) [µM] | IC50 (rat cortical neurons; Rattus norvegicus, Cortical neurone, read-out: Neurite Total Length per Neuron IC50, rat cortical neurons, 72 h) [µM] | IC50 (rat cortical neurons; Rattus norvegicus, Cortical neurone, read-out: Valid Neuron Count IC50, rat cortical neurons, 72 h) [µM] | effect on neurite outgrowth in relation to effect on cell viability (rat cortical neurons; rat cortical neurons) | IC50 (rat cortical neurons; read-out: Mean Neurite Avg. Length IC50, rat cortical neurons) [µM] | IC50 (rat cortical neurons; Cortical neurone, rat cortical neurons, read-out: Mean Neurite Avg. Length IC50) [µM] | IC50 (rat cortical neurons; Cortical neurone, rat cortical neurons, read-out: Neurite Total Length per Neuron IC50) [µM] | IC50 (rat cortical neurons; Cortical neurone, rat cortical neurons, read-out: Valid Neuron Count IC50) [µM] | IC50 [1] [µM]
1 | CN(C)CCCN1c2ccccc2Sc2ccc(Cl)cc21 [Chlorpromazine, reference compound] | 9.02 | 13.8 | 7.99 | not independent of its effect on cell viability | 9.02 | – | – | – | –
2 | COC(=O)Nc1nc2ccc(C(=O)c3cccs3)cc2[nH]1 [Nocodazole, reference compound] | – | – | – | positive for substantially affecting neurite outgrowth while nominally affecting cell viability | – | 0.097 | 0.0997 | 2.22 | –
3 | NC(=O)C[S@@+]([O-])C(c1ccccc1)c1ccccc1 [R-Modafinil] | – | – | – | – | – | – | – | – | 169 ± 90
